Data: PubChem BioAssay AID256 (DTP/NCI, 2004)
Where “and” joins values, the source holds several entries; their conditions need not be identical. Equal entries are not always repeated. Toxic doses and inconclusive results are not listed.

Test system: CD2F1 mice, L1210 leukemia ip, survival T/C
Test: NCI In Vivo Anticancer Drug Screen. Data for tumor model L1210 Leukemia (intraperitoneal) in CD2F1 (CDF1) mice
Settings: higher = longer survival
Outline: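 Transplantable tumor in mice; compound-treated vs vehicle-treated groups. Read-out = treated/control ratio of the measured endpoint.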

[1] = endpoint: mean survival time, dose: 100.0 mg/kg/injection, schedule: Q01DX009 (ip), vehicle: saline with Tween-80
[2] = endpoint: mean survival time, dose: 100.0 mg/kg/injection, schedule: Q04DX003 (ip), vehicle: saline with Tween-80
[3] = endpoint: mean survival time, dose: 200.0 mg/kg/injection, schedule: Q01DX009 (ip), vehicle: saline with Tween-80
[4] = endpoint: mean survival time, dose: 200.0 mg/kg/injection, schedule: Q04DX003 (ip), vehicle: saline with Tween-80
[5] = endpoint: mean survival time, dose: 400.0 mg/kg/injection, schedule: Q04DX003 (ip), vehicle: saline with Tween-80
[6] = endpoint: mean survival time, dose: 50.0 mg/kg/injection, schedule: Q01DX009 (ip), vehicle: saline
[7] = endpoint: mean survival time, dose: 100.0 mg/kg/injection, schedule: Q01DX009 (ip), vehicle: saline
[8] = endpoint: mean survival time, dose: 50.0 mg/kg/injection, schedule: Q01DX009 (ip), vehicle: saline with Tween-80
[9] = endpoint: mean survival time, dose: 400.0 mg/kg/injection, schedule: Q01DX009 (ip), vehicle: saline with Tween-80
[10] = endpoint: mean survival time, dose: 25.0 mg/kg/injection, schedule: Q01DX009 (ip), vehicle: saline

## Cn1c(=O)c2[nH]c(-c3cccnc3)nc2n(C)c1=O
endpoint: mean survival time, dose: 12.5 mg/kg/injection, schedule: Q01DX005 (ip), vehicle: distilled water + Tween-80
  T/C: 92 % of control
endpoint: mean survival time, dose: 25.0 mg/kg/injection, schedule: Q01DX005 (ip), vehicle: distilled water + Tween-80
  T/C: 98 % of control
endpoint: mean survival time, dose: 50.0 mg/kg/injection, schedule: Q01DX005 (ip), vehicle: distilled water + Tween-80
  T/C: 98 % of control
endpoint: mean survival time, dose: 100.0 mg/kg/injection, schedule: Q01DX005 (ip), vehicle: distilled water + Tween-80
  T/C: 98 % of control
endpoint: mean survival time, dose: 200.0 mg/kg/injection, schedule: Q01DX005 (ip), vehicle: distilled water + Tween-80
  T/C: 116 % of control

## NC(=S)NCc1ccccc1
[1]
  T/C: 89 % of control
[2]
  T/C: 105 % of control
[3]
  T/C: 91 % of control
[4]
  T/C: 101 % of control
[5]
  T/C: 112 % of control

## Nc1nc(=O)n(C2OC(CO)C(O)C2F)cc1I (stereo not drawn)
endpoint: median survival time, dose: 12.5 mg/kg/injection, schedule: Q01DX005 (ip), vehicle: saline
  T/C: 103 % of control
endpoint: median survival time, dose: 25.0 mg/kg/injection, schedule: Q01DX005 (ip), vehicle: saline
  T/C: 102 % of control
endpoint: median survival time, dose: 50.0 mg/kg/injection, schedule: Q01DX005 (ip), vehicle: saline
  T/C: 104 % of control
endpoint: median survival time, dose: 100.0 mg/kg/injection, schedule: Q01DX005 (ip), vehicle: saline
  T/C: 97 % of control
endpoint: median survival time, dose: 200.0 mg/kg/injection, schedule: Q01DX005 (ip), vehicle: saline
  T/C: 103 % of control

## O=C1CCCO1
endpoint: mean survival time, dose: 12.0 mg/kg/injection, schedule: Q01DX009 (ip), vehicle: saline
  T/C: 99 % of control
[6]
  T/C: 91 % of control
[7]
  T/C: 92 % of control
endpoint: mean survival time, dose: 100.0 mg/kg/injection, schedule: Q04DX002 (ip), vehicle: saline
  T/C: 107 % of control
endpoint: mean survival time, dose: 200.0 mg/kg/injection, schedule: Q04DX002 (ip), vehicle: saline
  T/C: 98 % of control
endpoint: mean survival time, dose: 400.0 mg/kg/injection, schedule: Q04DX002 (ip), vehicle: saline
  T/C: 102 % of control

## OCC(O)COCC#Cc1ccccc1 (stereo not drawn)
endpoint: mean survival time, dose: 25.0 mg/kg/injection, schedule: Q01DX009 (ip), vehicle: water
  T/C: 97 % of control
endpoint: mean survival time, dose: 50.0 mg/kg/injection, schedule: Q01DX009 (ip), vehicle: water
  T/C: 92 % of control
endpoint: mean survival time, dose: 100.0 mg/kg/injection, schedule: Q01DX009 (ip), vehicle: water
  T/C: 101 % of control
endpoint: mean survival time, dose: 200.0 mg/kg/injection, schedule: Q01DX009 (ip), vehicle: water
  T/C: 101 % of control

## N=C(N)Sc1ccccn1
endpoint: mean survival time, dose: 12.5 mg/kg/injection, schedule: Q01DX009 (ip), vehicle: suspension in saline
  T/C: 98 % of control
endpoint: mean survival time, dose: 25.0 mg/kg/injection, schedule: Q01DX009 (ip), vehicle: suspension in saline
  T/C: 108 % of control
endpoint: mean survival time, dose: 50.0 mg/kg/injection, schedule: Q01DX009 (ip), vehicle: suspension in saline
  T/C: 93 % of control
endpoint: mean survival time, dose: 100.0 mg/kg/injection, schedule: Q01DX009 (ip), vehicle: suspension in saline
  T/C: 93 % of control
endpoint: mean survival time, dose: 200.0 mg/kg/injection, schedule: Q01DX009 (ip), vehicle: suspension in saline
  T/C: 87 % of control
endpoint: mean survival time, dose: 400.0 mg/kg/injection, schedule: Q01DX009 (ip), vehicle: suspension in saline
  T/C: 90 % of control

## CCSC(=O)CC
[1]
  T/C: 93 % of control
[3]
  T/C: 98 % of control

## CCOc1c(Cl)cc(Cl)cc1C(c1ccc(Cl)cc1S(=O)(=O)O)c1cc(Cl)cc(Cl)c1OCC
endpoint: mean survival time, dose: 25.0 mg/kg/injection, schedule: Q01DX009 (ip), vehicle: saline with Tween-80
  T/C: 98 % of control
[8]
  T/C: 89 % of control
[1]
  T/C: 86 % of control

## Cc1[nH]c(=S)[nH]c(=O)c1Cc1c(O)ccc2ccccc12
endpoint: mean survival time, dose: 100.0 mg/kg/injection, schedule: Q01DX001 (ip), vehicle: saline
  T/C: 97 % of control
endpoint: mean survival time, dose: 200.0 mg/kg/injection, schedule: Q01DX001 (ip), vehicle: saline
  T/C: 100 % of control
endpoint: mean survival time, dose: 400.0 mg/kg/injection, schedule: Q01DX001 (ip), vehicle: saline
  T/C: 103 % of control

## CC1=CC(=O)C(Sc2ccc(C)cc2)=CC1=O
[8]
  T/C: 94 % of control

## CCOc1cc([N+](=O)[O-])c(OCC)cc1Cl
[1]
  T/C: 90 % of control
[2]
  T/C: 92 % of control
[3]
  T/C: 96 % of control
[4]
  T/C: 89 % of control
[9]
  T/C: 98 % of control
[5]
  T/C: 93 % of control

## CCCCCCCCCCCCOc1ccc(Cl)cc1
endpoint: mean survival time, dose: 100.0 mg/kg/injection, schedule: Q04DX002 (ip), vehicle: saline with Tween-80
  T/C: 90 % of control
endpoint: mean survival time, dose: 200.0 mg/kg/injection, schedule: Q04DX002 (ip), vehicle: saline with Tween-80
  T/C: 98 % of control
endpoint: mean survival time, dose: 400.0 mg/kg/injection, schedule: Q04DX002 (ip), vehicle: saline with Tween-80
  T/C: 90 % of control

## CC[n+]1ccc(Nc2ccc(NC(=O)c3ccc(Nc4cc[n+](CC)c5ccc([N+](=O)[O-])cc45)cc3)cc2)cc1
endpoint: mean survival time, dose: 2.0 mg/kg/injection, schedule: Q01DX009 (ip), vehicle: saline sonified
  T/C: 105 % of control
endpoint: mean survival time, dose: 4.0 mg/kg/injection, schedule: Q01DX009 (ip), vehicle: saline sonified
  T/C: 108 % of control
endpoint: mean survival time, dose: 8.0 mg/kg/injection, schedule: Q01DX009 (ip), vehicle: saline sonified
  T/C: 123 % of control
endpoint: mean survival time, dose: 11.0 mg/kg/injection, schedule: Q01DX009 (ip), vehicle: saline
  T/C: 119 % of control
[10]
  T/C: 162 % of control
endpoint: mean survival time, dose: 37.5 mg/kg/injection, schedule: Q01DX009 (ip), vehicle: saline
  T/C: 203 % of control

## CN(C)c1ccc(N=C(C#N)C(=O)c2ccccc2)cc1
[1]
  T/C: 95 % of control
[3]
  T/C: 97 % of control
[9]
  T/C: 97 % of control

## O=C1c2ccccc2C(=O)c2c(NCCNCCO)ccc(O)c21
endpoint: mean survival time, dose: 1.25 mg/kg/injection, schedule: Q01DX009 (ip), vehicle: suspension in saline
  T/C: 100 % of control
endpoint: mean survival time, dose: 2.5 mg/kg/injection, schedule: Q01DX009 (ip), vehicle: suspension in saline
  T/C: 101 % of control and 112 % of control
endpoint: mean survival time, dose: 5.0 mg/kg/injection, schedule: Q01DX009 (ip), vehicle: suspension in saline
  T/C: 113 % of control and 103 % of control
endpoint: mean survival time, dose: 7.5 mg/kg/injection, schedule: Q01DX009 (ip), vehicle: saline
  T/C: 193 % of control
endpoint: mean survival time, dose: 10.0 mg/kg/injection, schedule: Q01DX009 (ip), vehicle: suspension in saline
  T/C: 118 % of control and 101 % of control
endpoint: mean survival time, dose: 15.0 mg/kg/injection, schedule: Q01DX009 (ip), vehicle: saline
  T/C: 151 % of control
endpoint: mean survival time, dose: 20.0 mg/kg/injection, schedule: Q01DX009 (ip), vehicle: suspension in saline
  T/C: 112 % of control
endpoint: mean survival time, dose: 40.0 mg/kg/injection, schedule: Q01DX009 (ip), vehicle: suspension in saline
  T/C: 156 % of control
endpoint: median survival time, dose: 5.0 mg/kg/injection, schedule: Q01DX009 (ip), vehicle: suspension in saline
  T/C: 123 % of control and 110 % of control
endpoint: median survival time, dose: 10.0 mg/kg/injection, schedule: Q01DX009 (ip), vehicle: suspension in saline
  T/C: 115 % of control
endpoint: median survival time, dose: 20.0 mg/kg/injection, schedule: Q01DX009 (ip), vehicle: suspension in saline
  T/C: 150 % of control
endpoint: median survival time, dose: 40.0 mg/kg/injection, schedule: Q01DX009 (ip), vehicle: suspension in saline
  T/C: 153 % of control and 155 % of control
endpoint: median survival time, dose: 80.0 mg/kg/injection, schedule: Q01DX009 (ip), vehicle: suspension in saline
  T/C: 158 % of control and 183 % of control

## C=CCOCC1CO1 (stereo not drawn)
endpoint: mean survival time, dose: 12.5 mg/kg/injection, schedule: Q01DX009 (ip), vehicle: saline
  T/C: 102 % of control and 103 % of control
[10]
  T/C: 102 % of control and 111 % of control
[8]
  T/C: 100 % of control
[6]
  T/C: 98 % of control and 108 % of control
[1]
  T/C: 97 % of control
[7]
  T/C: 94 % of control and 104 % of control
[3]
  T/C: 103 % of control
endpoint: mean survival time, dose: 200.0 mg/kg/injection, schedule: Q01DX009 (ip), vehicle: saline
  T/C: 114 % of control and 105 % of control
[9]
  T/C: 105 % of control

## Cn1c(=O)c2c(ncn2CCNCC(O)c2ccc(O)c(O)c2)n(C)c1=O (stereo not drawn)
endpoint: mean survival time, dose: 12.5 mg/kg/injection, schedule: Q01DX005 (ip), vehicle: water
  T/C: 100 % of control
endpoint: mean survival time, dose: 25.0 mg/kg/injection, schedule: Q01DX005 (ip), vehicle: water
  T/C: 106 % of control
endpoint: mean survival time, dose: 50.0 mg/kg/injection, schedule: Q01DX005 (ip), vehicle: water
  T/C: 97 % of control
endpoint: mean survival time, dose: 100.0 mg/kg/injection, schedule: Q01DX005 (ip), vehicle: water
  T/C: 101 % of control
endpoint: mean survival time, dose: 200.0 mg/kg/injection, schedule: Q01DX005 (ip), vehicle: water
  T/C: 106 % of control

## CCOCCO
endpoint: mean survival time, dose: 5.0 mg/kg/injection, schedule: Q01DX001 (ip), vehicle: saline sonified
  T/C: 103 % of control
endpoint: mean survival time, dose: 10.0 mg/kg/injection, schedule: Q01DX001 (ip), vehicle: saline sonified
  T/C: 101 % of control
endpoint: mean survival time, dose: 20.0 mg/kg/injection, schedule: Q01DX001 (ip), vehicle: saline sonified
  T/C: 101 % of control
